Laboratory results published in patent US7605272B2, “IGF-1R inhibitor” (Kyowa Hakko Kirin Co., Ltd., priority 2005, dated 2009).
Where two headings read alike, the source gives them in different places.

How the values were obtained:
IGF-1R = target: T1, IGF-1R (Homo sapiens, UniProt P08069); assay: IGF-1R inhibitory activity (kinase reaction, time-resolved fluoroimmunoassay); format: biochemical; conditions: test compound 10 μmol/L
T1 construct: purchased Upstate Co. 14-465
Summary of the method: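 Compounds were tested at a single 10 μmol/L concentration. Each was incubated with recombinant IGF-1R (200 μg/L), 10 mmol/L ATP, MgCl2/MnCl2 and Na3VO4 (pH 7.5) on immobilized poly(Glu-Tyr) peptide for 30 min at 24° C. Eu-anti-phosphotyrosine time-resolved fluorescence (340/615 nm) gave relative activity against no-compound and no-enzyme wells, reported as % inhibition.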

KMS-11 = assay: Cytostatic activity on human multiple myeloma cell line KMS-11 (WST-1); format: cell-based; conditions: Homo sapiens, 10 μmol/L, 72 hours, read-out: cytostatic rate (%) KMS-11 (10 μmol/L)
Experimental: (§1) The cytostatic rates of a test compound on human multiple myeloma cell lines NCI-H929 and KMS-11, were determined in the following manner.
(§2) For culturing NCI-H929, Roswell Park Memorial Institute's Medium (RPMI) 1640 (Gibco, Catalog No. 11875-093) containing 15% fetal bovine serum (Gibco, Catalog No. 10099-141), 1 mmol/L sodium pyruvate (Gibco, Catalog No. 11360-070), 10 mmol/L HEPES (Gibco, Catalog No. 15630-80), 4.5 g/L glucose (Sigma, Catalog No. G8769), 0.05 mmol/L 2-mercaptethanol (Nacalai Tesque, Catalog No. 21418-42) and penicillin/streptomycin (1:1) (Gibco, Catalog No. 15140-122) was used. For culturing KMS-11 cell, RPMI 1640 medium containing 10% fetal bovine serum and penicillin/streptomycin (1:1) was used. Each 80 μL of the NCI-H929 cell having a concentration of 1×10^5 cells/mL (or the KMS-11 cell having a concentration of 7.5×10^4 cells/mL) was inoculated to wells of a TC MICROWELL 96U plate (Nalge Nunc International, Catalog No. 163320) and was cultured in a 5% carbon dioxide gas incubator at 37° C. for 24 hours. Each 20 μL of a solution of the test compound in dimethyl sulfoxide (DMSO) which was prepared to make the final concentration to 1 μmol/L or 10 μmol/L, was added to each well. Each 20 μL of DMSO was added to the control well and the blank well to a final concentration of 0.1%. After adding the test compound, the cells were incubated in a 5% carbon dioxide gas incubator at 37° C. for 72 hours except for the blank well. After adding 20 μL of WST-1 reagent {4-[3-(4-iodophenyl)-2-(4-nitrophenyl)-2H-5-tetrazolio]-1,3-benzene disulfonate sodium salt} (Roche Diagnostics K.K., Catalog No. 1644807), which was diluted to 50% by RPMI medium to each well, the cells were further incubated at 37° C. for 2 hours. Then, the absorbances at 450 nm (reference wavelength: 690 nm) were measured with a microplate spectrophotometer SPECTRA max 340PC (Molecular Devices Corporation). The relative growth (%) of a well to which the test compound had been added and cultured for 72 hours was determined while setting the absorbance of a well to which not the test compound but DMSO alone had been added and cultured for 72 hours (control) as 100% and that of a well where the drugs are added (blank) as 0%. The cytostatic rate (%) of the test compound was determined by subtracting the calculated relative growth from 100.

NCI-H929 = assay: Cytostatic activity on human multiple myeloma cell line NCI-H929 (WST-1); format: cell-based; conditions: Homo sapiens, NCI-H929, 72 h, 10 μmol/L, 72 hours; read-out: cytostatic rate (%) H929 (10 μmol/L)
Experimental: as §1, §2

[1] = IGF-1R active recombinant enzyme

T1 sequence (P08069 959-1367 limits assumed): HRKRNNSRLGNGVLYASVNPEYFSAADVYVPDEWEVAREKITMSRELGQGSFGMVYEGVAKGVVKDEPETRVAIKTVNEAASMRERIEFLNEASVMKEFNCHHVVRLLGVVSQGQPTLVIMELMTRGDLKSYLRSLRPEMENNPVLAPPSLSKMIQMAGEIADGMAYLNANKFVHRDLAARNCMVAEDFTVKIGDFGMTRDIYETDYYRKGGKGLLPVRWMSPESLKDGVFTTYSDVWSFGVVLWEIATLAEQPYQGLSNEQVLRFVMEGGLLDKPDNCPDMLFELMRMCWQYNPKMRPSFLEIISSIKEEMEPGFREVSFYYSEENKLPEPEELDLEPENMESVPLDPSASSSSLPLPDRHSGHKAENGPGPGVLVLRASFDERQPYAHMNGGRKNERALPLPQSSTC

inhibition at 10 µM (IGF-1R) [%] | inhibition at 10 µM (IGF-1R; [1]) [%] | SMILES | inhibition at 10 µM (KMS-11; KMS-11, 72 h) [%] | inhibition at 10 µM (NCI-H929) [%] | inhibition at 10 µM (KMS-11; KMS-11) [%]
98.5 |  | CCCNC(=O)c1ccc(/C=C/c2n[nH]c3ccccc23)c(NC(=O)c2sccc2C)c1 [Compound 112, (E)-N-{2-[2-(1H-indazol-3-yl)vinyl]-5-(N-propylcarbamoyl)-phenyl}-3-methylthiophene-2-carboxamide] | 126 |  | 
98.6 |  | CCN(C)C(=O)c1ccc(/C=C/c2n[nH]c3ccccc23)c(NC(=O)c2sccc2C)c1 [Compound 113, (E)-N-{5-(N-ethyl-N-methylcarbamoyl)-2-[2-(1H-indazol-3-yl)vinyl]phenyl}-3-methylthiophene-2-carboxamide] | 121 |  | 
98.3 |  | Cn1cccc1C(=O)Nc1ccc(OCCN2CCOCC2)cc1/C=C/c1n[nH]c2ccccc12 [Compound 104, (E)-N-{2-[2-(1H-indazol-3-yl)vinyl]-4-(2-morpholinoethoxy)phenyl}-1-methylpyrrole-2-carboxamide] |  | 130 | 
98.3 |  | Cc1ccsc1C(=O)Nc1cc2c(cc1/C=C/c1n[nH]c3ccccc13)OCO2 [Compound 130, (E)-N-{6-[2-(1H-indazol-3-yl)vinyl]benzo[1,3]dioxol-5-yl}-3-methylthiophene-2-carboxamide] |  | 126 | 
97.8 |  | Cc1ccsc1C(=O)Nc1cc(C(=O)N2CC[C@@H](N)C2)ccc1/C=C/c1n[nH]c2ccccc12 [Compound 102, (E)-(R)—N-{5-(3-aminopyrrolidine-1-ylcarbonyl)-2-[2-(1H-indazol-3-yl)vinyl]phenyl}-3-methylthiophene-2-carboxamide] |  | 125 | 
 | 99 | OCc1ccn(-c2ccccc2/C=C/c2n[nH]c3ccccc23)c1 [Compound 168, (E)-1-{2-[2-(1H-indazol-3-yl)vinyl]phenyl}-1H-pyrrole-3-methanol] |  | 106 | 

The remaining lines, values behind:

SMILES | inhibition at 10 µM (IGF-1R) [%] | inhibition at 10 µM (IGF-1R; [1]) [%] | inhibition at 10 µM (KMS-11; KMS-11, 72 h) [%] | inhibition at 10 µM (NCI-H929) [%] | inhibition at 10 µM (KMS-11; KMS-11) [%]
COC(=O)c1ccc(/C=C/c2n[nH]c3ccccc23)c(NC(=O)c2sccc2C)c1 [Compound 97, (E)-4-[2-(1H-indazol-3-yl)vinyl]-3-[(3-methylthiophen-2-ylcarbonyl)amino]benzoic acid methyl ester] | 97.1 |  | 100 |  | 
Cc1ccsc1C(=O)Nc1cc(C(=O)N2CCNCC2)ccc1/C=C/c1n[nH]c2ccccc12 [Compound 99, (E)-N-{2-[2-(1H-indazol-3-yl)vinyl]-5-(piperazin-1-ylcarbonyl)phenyl}-3-methylthiophene-2-carboxamide] | 97.4 |  | 118 |  | 
O=C(Nc1ccc(C(=O)Nc2ccccc2/C=C/c2n[nH]c3ccccc23)s1)c1cccs1 [Compound 61, (E)-N-{2-[2-(1H-indazol-3-yl)vinyl]phenyl}-5-[(thiophen-2-ylcarbonyl)amino]thiophene-2-carboxamide] |  | 94.5 |  | 124 | 
CN(C(=O)c1ccccc1)c1ccccc1/C=C/c1n[nH]c2ccccc12 [Compound 38, (E)-N-{2-[2-(1H-indazol-3-yl)vinyl]phenyl}-N-methylbenzamide] |  | 93 |  | 65 | 
CCN(CC)C(=O)c1ccc(/C=C/c2n[nH]c3ccccc23)c(NC(=O)c2sccc2C)c1 [Compound 101, (E)-N-{5-(N,N-diethylcarbamoyl)-2-[2-(1H-indazol-3-yl)vinyl]phenyl}-3-methylthiophene-2-carboxamide] | 100 |  |  |  | 117
CC(C)C(=O)Nc1ccc(C(=O)Nc2ccccc2/C=C/c2n[nH]c3ccccc23)s1 [Compound 62, (E)-N-{2-[2-(1H-indazol-3-yl)vinyl]phenyl}-5-isobutyrylaminothiophene-2-carboxamide] |  | 95.7 |  | 120 | 
Nc1ccc(C(=O)Nc2ccc(OCCN3CCOCC3)cc2/C=C/c2n[nH]c3ccccc23)s1 [Compound 106, (E)-5-amino-N-{2-[2-(1H-indazol-3-yl)vinyl]-4-(2-morpholinoethoxy)phenyl}thiophene-2-carboxamide] |  |  | 115 | 112 | 
